Results as given in ChEMBL document CHEMBL2380302, “Synthesis of 3-O-propargylated betulinic acid and its 1,2,3-triazoles as potential apoptotic agents” (Eur J Med Chem, 2013).

How the values were obtained:
DU-145 [1] = assay: Cytotoxicity against human DU145 cells after 48 hrs by SRB assay; format: functional, cell-based; conditions: DU-145, 48 h
HL-60 [2] = assay: Cytotoxicity against human HL60 cells after 48 hrs by SRB assay; format: functional, cell-based; conditions: HL-60, 48 h
DU-145 [3] = assay: Cytotoxicity against human DU145 cells at 50 uM after 48 hrs by SRB assay; format: functional; conditions: DU-145, 48 h, read-out: GI
HEp-2 [4] = assay: Cytotoxicity against human Hep2 cells at 50 uM after 48 hrs by SRB assay; format: functional; conditions: HEp-2, 48 h, read-out: GI
HL-60 [5] = assay: Cytotoxicity against human HL60 cells at 10 uM after 48 hrs by SRB assay; format: functional; conditions: HL-60, 48 h, read-out: GI
A549 [6] = assay: Cytotoxicity against human A549 cells at 10 uM after 48 hrs by SRB assay; format: functional; conditions: A549, 48 h, read-out: GI
A549 [7] = assay: Cytotoxicity against human A549 cells at 30 uM after 48 hrs by SRB assay; format: functional; conditions: A549, 48 h, read-out: GI
HCT-15 [8] = assay: Cytotoxicity against human HCT15 cells at 50 uM after 48 hrs by SRB assay; format: functional; conditions: HCT-15, 48 h, read-out: GI
PC-3 [9] = assay: Cytotoxicity against human PC3 cells at 50 uM after 48 hrs by SRB assay; format: functional; conditions: PC-3, 48 h, read-out: GI
THP-1 [10] = assay: Cytotoxicity against human THP1 cells at 30 uM after 48 hrs by SRB assay; format: functional; conditions: THP-1, 48 h, read-out: GI
HCT-15 [11] = assay: Cytotoxicity against human HCT15 cells after 48 hrs by SRB assay; format: functional, cell-based; conditions: HCT-15, 48 h
SF-295 [12] = assay: Cytotoxicity against human SF295 cells at 50 uM after 48 hrs by SRB assay; format: functional; conditions: SF-295, 48 h, read-out: GI
A549 [13] = assay: Cytotoxicity against human A549 cells after 48 hrs by SRB assay; format: functional, cell-based; conditions: A549, 48 h
SF-295 [14] = assay: Cytotoxicity against human SF295 cells at 30 uM after 48 hrs by SRB assay; format: functional; conditions: SF-295, 48 h, read-out: GI
PC-3 [15] = assay: Cytotoxicity against human PC3 cells after 48 hrs by SRB assay; format: functional, cell-based; conditions: PC-3, 48 h
HCT-15 [16] = assay: Cytotoxicity against human HCT15 cells at 10 uM after 48 hrs by SRB assay; format: functional; conditions: HCT-15, 48 h, read-out: GI
PC-3 [17] = assay: Cytotoxicity against human PC3 cells at 10 uM after 48 hrs by SRB assay; format: functional; conditions: PC-3, 48 h, read-out: GI
THP-1 [18] = assay: Cytotoxicity against human THP1 cells after 48 hrs by SRB assay; format: functional, cell-based; conditions: THP-1, 48 h
A549 [19] = assay: Cytotoxicity against human A549 cells at 50 uM after 48 hrs by SRB assay; format: functional; conditions: A549, 48 h, read-out: GI
THP-1 [20] = assay: Cytotoxicity against human THP1 cells at 10 uM after 48 hrs by SRB assay; format: functional; conditions: THP-1, 48 h, read-out: GI
SF-295 [21] = assay: Cytotoxicity against human SF295 cells after 48 hrs by SRB assay; format: functional, cell-based; conditions: SF-295, 48 h
HEp-2 [22] = assay: Cytotoxicity against human Hep2 cells at 10 uM after 48 hrs by SRB assay; format: functional; conditions: HEp-2, 48 h, read-out: GI
MCF7 [23] = assay: Cytotoxicity against human MCF7 cells at 50 uM after 48 hrs by SRB assay; format: functional; conditions: MCF7, 48 h, read-out: GI
SF-295 [24] = assay: Cytotoxicity against human SF295 cells at 10 uM after 48 hrs by SRB assay; format: functional; conditions: SF-295, 48 h, read-out: GI
HEp-2 [25] = assay: Cytotoxicity against human Hep2 cells after 48 hrs by SRB assay; format: functional, cell-based; conditions: HEp-2, 48 h
HL-60 [26] = assay: Cytotoxicity against human HL60 cells at 50 uM after 48 hrs by SRB assay; format: functional; conditions: HL-60, 48 h, read-out: GI
THP-1 [27] = assay: Cytotoxicity against human THP1 cells at 50 uM after 48 hrs by SRB assay; format: functional; conditions: THP-1, 48 h, read-out: GI
HL-60 [28] = assay: Cytotoxicity against human HL60 cells at 30 uM after 48 hrs by SRB assay; format: functional; conditions: HL-60, 48 h, read-out: GI
MCF7 [29] = assay: Cytotoxicity against human MCF7 cells at 10 uM after 48 hrs by SRB assay; format: functional; conditions: MCF7, 48 h, read-out: GI
MCF7 [30] = assay: Cytotoxicity against human MCF7 cells at 30 uM after 48 hrs by SRB assay; format: functional; conditions: MCF7, 48 h, read-out: GI
HEp-2 [31] = assay: Cytotoxicity against human Hep2 cells at 30 uM after 48 hrs by SRB assay; format: functional; conditions: HEp-2, 48 h, read-out: GI
DU-145 [32] = assay: Cytotoxicity against human DU145 cells at 30 uM after 48 hrs by SRB assay; format: functional; conditions: DU-145, 48 h, read-out: GI
DU-145 [33] = assay: Cytotoxicity against human DU145 cells at 10 uM after 48 hrs by SRB assay; format: functional; conditions: DU-145, 48 h, read-out: GI
HCT-15 [34] = assay: Cytotoxicity against human HCT15 cells at 30 uM after 48 hrs by SRB assay; format: functional; conditions: HCT-15, 48 h, read-out: GI
PC-3 [35] = assay: Cytotoxicity against human PC3 cells at 30 uM after 48 hrs by SRB assay; format: functional; conditions: PC-3, 48 h, read-out: GI
MCF7 [36] = assay: Cytotoxicity against human MCF7 cells after 48 hrs by SRB assay; format: functional, cell-based; conditions: MCF7, 48 h

## C=C(C)[C@@H]1CC[C@]2(C(=O)O)CC[C@]3(C)[C@H](CC[C@@H]4[C@@]5(C)CC[C@H](OCc6cn(-c7cccc(CO)c7)nn6)C(C)(C)[C@@H]5CC[C@]43C)[C@@H]12
DU-145 [1]
  IC50: 23 µM
HL-60 [2]
  IC50: 7 µM
DU-145 [3]
  inhibition of growth at 50 µM: 65%
HEp-2 [4]
  inhibition of growth at 50 µM: 78%
HL-60 [5]
  inhibition of growth at 10 µM: 53%
A549 [6]
  inhibition of growth at 10 µM: 43%
A549 [7]
  inhibition of growth at 30 µM: 45%
HCT-15 [8]
  inhibition of growth at 50 µM: 71%
PC-3 [9]
  inhibition of growth at 50 µM: 49%
THP-1 [10]
  inhibition of growth at 30 µM: 91%
HCT-15 [11]
  IC50: 25 µM
SF-295 [12]
  inhibition of growth at 50 µM: 47%
A549 [13]
  IC50: 32 µM
SF-295 [14]
  inhibition of growth at 30 µM: 37%
PC-3 [15]
  IC50: 50 µM
HCT-15 [16]
  inhibition of growth at 10 µM: 11%
PC-3 [17]
  inhibition of growth at 10 µM: 4%
THP-1 [18]
  IC50: 10 µM
A549 [19]
  inhibition of growth at 50 µM: 67%
THP-1 [20]
  inhibition of growth at 10 µM: 50%
SF-295 [21]
  IC50: 53 µM
HEp-2 [22]
  inhibition of growth at 10 µM: 51%
MCF7 [23]
  inhibition of growth at 50 µM: 75%
SF-295 [24]
  inhibition of growth at 10 µM: 27%
HEp-2 [25]
  IC50: 8 µM
HL-60 [26]
  inhibition of growth at 50 µM: 95%
THP-1 [27]
  inhibition of growth at 50 µM: 93%
HL-60 [28]
  inhibition of growth at 30 µM: 93%
MCF7 [29]
  inhibition of growth at 10 µM: 36%
MCF7 [30]
  inhibition of growth at 30 µM: 71%
HEp-2 [31]
  inhibition of growth at 30 µM: 74%
DU-145 [32]
  inhibition of growth at 30 µM: 52%
DU-145 [33]
  inhibition of growth at 10 µM: 43%
HCT-15 [34]
  inhibition of growth at 30 µM: 70%
PC-3 [35]
  inhibition of growth at 30 µM: 29%
MCF7 [36]
  IC50: 17 µM

## C=C(C)[C@@H]1CC[C@]2(C(=O)O)CC[C@]3(C)[C@H](CC[C@@H]4[C@@]5(C)CC[C@H](OCc6cn(-c7cccc(OC)c7)nn6)C(C)(C)[C@@H]5CC[C@]43C)[C@@H]12
DU-145 [1]
  IC50: > 50 µM
HL-60 [2]
  IC50: 37 µM
DU-145 [3]
  inhibition of growth at 50 µM: 30%
HEp-2 [4]
  inhibition of growth at 50 µM: 57%
HL-60 [5]
  inhibition of growth at 10 µM: 20%
A549 [6]
  inhibition of growth at 10 µM: 34%
A549 [7]
  inhibition of growth at 30 µM: 38%
HCT-15 [8]
  inhibition of growth at 50 µM: 84%
PC-3 [9]
  inhibition of growth at 50 µM: 28%
THP-1 [10]
  inhibition of growth at 30 µM: 41%
HCT-15 [11]
  IC50: 26 µM
SF-295 [12]
  inhibition of growth at 50 µM: 55%
A549 [13]
  IC50: > 50 µM
SF-295 [14]
  inhibition of growth at 30 µM: 48%
PC-3 [15]
  IC50: > 50 µM
HCT-15 [16]
  inhibition of growth at 10 µM: 23%
PC-3 [17]
  inhibition of growth at 10 µM: 4%
THP-1 [18]
  IC50: 47 µM
A549 [19]
  inhibition of growth at 50 µM: 45%
THP-1 [20]
  inhibition of growth at 10 µM: 17%
SF-295 [21]
  IC50: 32 µM
HEp-2 [22]
  inhibition of growth at 10 µM: 30%
MCF7 [23]
  inhibition of growth at 50 µM: 75%
SF-295 [24]
  inhibition of growth at 10 µM: 15%
HEp-2 [25]
  IC50: 29 µM
HL-60 [26]
  inhibition of growth at 50 µM: 60%
THP-1 [27]
  inhibition of growth at 50 µM: 54%
HL-60 [28]
  inhibition of growth at 30 µM: 45%
MCF7 [29]
  inhibition of growth at 10 µM: 46%
MCF7 [30]
  inhibition of growth at 30 µM: 59%
HEp-2 [31]
  inhibition of growth at 30 µM: 56%
DU-145 [32]
  inhibition of growth at 30 µM: 18%
DU-145 [33]
  inhibition of growth at 10 µM: 17%
HCT-15 [34]
  inhibition of growth at 30 µM: 53%
PC-3 [35]
  inhibition of growth at 30 µM: 10%
MCF7 [36]
  IC50: 12 µM
